We go through one compound from patent publication US12578350B2, “System and method for coagulation and platelet function related data collection and analysis” (FloBio LLC, priority 2024, dated 2026).

The test concerns fibrin accumulation. Description: Microfluidic whole blood flow assay over collagen/tissue factor reaction zone, fibrin signal, drug spiked in vitro. The test is classed as cell-based, human. As to conditions: blood sample treated with different doses, in relation to HBS control; 37° C. and 21° C.; FIGS. 17C-17D.

Source text: The drug in question can be mixed with a small bolus of patient blood outside the device (in vitro), and the drug spiked blood then analyzed on the system. […] Fresh whole blood (used within minutes of venous draw), AF594 fibrinogen (fibrinogen from human plasma, Alexa FluorTM 594 conjugate) and platelet MCA2588A488 (mouse anti-human CD61, Alexa FluorTM 488 conjugate) can be added to the device 100 and the direct fluorescence signals can be analyzed. […] The result is the production of direct fluorescent signals in green (platelets) and red (fibrin) where the measured fluorescent intensity (FI) directly correlates with the accumulation of platelets and fibrin. The fluorescent signal intensity can be directly measured at each clot site over time to produce clot response curves for both fibrin and platelets. Fluorescence signal (intensity) can be extracted for each clot and plotted for each assay condition. Two signals are generated in the test as fluorescence intensity (FI) for fibrin and platelets accumulating in the region of interest on the device. […] The optimal time at which to select data for analyses is generally determined to be the time of the maximum rate of stable signal development, which typically corresponds to the half-max or T50 time point of the assay.

With `O=C(NC[C@H]1CN(c2ccc(N3CCOCC3=O)cc2)C(=O)O1)c1ccc(Cl)s1` [Rivaroxaban], the “fibrin signal with increasing dose” value is given as “decreases”.
